Patent US20190030049A1, “Celocoxib Binding Antibodies and Uses Thereof” (Marina Biotech, Inc., priority 2016, published 2019)

Assay: clinical
Conditions: human, plasma

- AUC (100 mg): 3400 ng·h/mL
- AUC (200 mg): 6800 ng·h/mL
SMILES: Cc1ccc(-c2cc(C(F)(F)F)nn2-c2ccc(S(N)(=O)=O)cc2)cc1 [celecoxib, Celecoxib]
